Assay results: article PMC6212638, “In silico identification and biochemical characterization of the human dicarboxylate clamp TPR protein interaction network” (FEBS Open Bio, 2018)

Assays:
[1] = system: Tom70; experiment: Dot-blot assay of Tom70 with HRP-conjugated Hsp90 and Tom20 peptides in presence of unconjugated peptides; assay type: binding, human; settings: 20 μM unconjugated peptide
Description: (§1) In subsequent experiments, non‐fluorescent peptides were used. […] Cell impermeable Hsp90 peptide served as a treatment control.
Figure 6 In vitro and in situ analysis of interactions of 10‐amino‐acid peptides corresponding to C termini of Hsp90 and Tom20 with Tom70. (A) Dot‐blot assay of interactions between Tom70 and HRP‐conjugated 10‐amino‐acid peptides corresponding to C termini of Hsp90 and Tom20 in the presence of 20 μM of unconjugated peptides. (B) Fluorescence imaging of HEK293 cells in the presence of 20 μM of fluorescein‐labeled Hsp90, R9–Hsp90, Tom20 and R9–Tom20 peptides. (C) Inhibition of Tom20–Tom70 and Hsp90–Tom70 interactions with R9–Hsp90 and R9–Tom20 in HEK293 cells measured by PLA. n = 3. Graphs were created and SD values were calculated using PRISM, version 7.02. *P‐value < 0.05 compared to control; comparisons are based on one‐way ANOVA. (D) Inhibition of Tom20–Tom70 and Hsp90–Tom70 interactions with R9–Hsp90 and R9–Tom20 in HEK293 cells measured by mammalian two‐hybrid assay. n = 3. Graphs were created and SD values were calculated using PRISM, version 7.02. *P‐value < 0.05 compared to control; comparisons are based on one‐way ANOVA.

[2] = system: Tom70; settings: cited from earlier work
Description: First, we tested the ability of unlabeled Hsp90 and Tom20 peptides to compete with their HRP‐labeled analogues for binding to Tom70, the known partner for both Hsp90 and Tom20 proteins.

[3] = target: T1, FKBP51 (Homo sapiens, UniProt Q13451); experiment: Dot-blot competition assay: HRP-conjugated peptide vs unlabeled peptide on immobilized FKBP51
T1 sequence (Q13451 1-457): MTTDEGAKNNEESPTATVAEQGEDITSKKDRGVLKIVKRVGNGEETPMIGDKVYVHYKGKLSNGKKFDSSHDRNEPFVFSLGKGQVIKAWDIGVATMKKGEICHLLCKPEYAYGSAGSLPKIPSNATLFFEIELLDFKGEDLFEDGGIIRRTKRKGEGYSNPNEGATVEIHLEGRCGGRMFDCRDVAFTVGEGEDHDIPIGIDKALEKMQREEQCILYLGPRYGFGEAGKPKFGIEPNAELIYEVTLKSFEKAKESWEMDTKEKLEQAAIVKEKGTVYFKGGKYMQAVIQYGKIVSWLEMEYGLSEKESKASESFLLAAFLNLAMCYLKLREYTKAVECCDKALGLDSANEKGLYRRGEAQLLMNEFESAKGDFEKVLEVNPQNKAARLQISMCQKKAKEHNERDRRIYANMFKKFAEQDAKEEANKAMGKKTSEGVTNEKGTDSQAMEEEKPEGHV
Description: (§4) Full‐length cDNA clones for respective proteins were obtained from IMAGE consortium (SourceBioScience, Nottingham, UK) and PCR amplified with forward and reverse primers (Table 1) containing overhangs with appropriate restriction sites and cloned into pGEX6 vectors (GE Healthcare, Uppsala, Sweden). Inserts were sequence verified, and the plasmids were transformed into BL21 Escherichia coli strain. Glutathione‐S‐transferase (GST) fusion proteins were purified from 1 L overnight culture after 2 h of induction with 1 mM IPTG. Cells were pelleted, resuspended in 1× PBS and sonicated 3 × 20 s on ice. EDTA and protease inhibitor cocktail were added to prevent proteolysis. The suspension was centrifuged for 30 min at 50 000 g to remove cell debris, and supernatant was loaded onto a 1 mL GSTrap™ 4B column (GE Healthcare). After column washing with 30 mL PBS, GST fusion proteins were eluted with 2.5 mL 10 mM glutathione in PBS. Eluate was passed through a PD‐10 column (GE Healthcare) to remove free glutathione. To prepare GST‐tag‐free proteins, we performed overnight cleavage at 4 °C with PreScission protease (GE Healthcare) followed by passage through a GSTrap column to remove free GST protein. Average yield from 1 L starting culture was 1–5 mg of purified proteins. Protein‐containing fractions were collected, checked with SDS/PAGE and kept at −20 °C.
(§5) Peptides were dissolved in HEPES‐KOH buffer pH 7.2 at concentration of 1 mg·mL^−1 and incubated with equimolar amounts of activated horseradish peroxidase (HRP) (Lightning‐link® HRP labeling kit cat. 701‐004, from Innova Biosciences) for 5 min. Reaction was quenched with 0.1 M Tris/HCl, pH 7.5 for 10 min and the products were passed through PD‐10 columns (GE Healthcare). Dot‐blot experiments were performed using GST‐tag‐free proteins applied to the nitrocellulose membrane. After blocking of membrane with 3% BSA in TBS‐T buffer for 1 h and subsequent wash with TBS‐T, HRP‐conjugated peptides (1 × 500 times dilution) were applied and incubated for 1 h. After subsequent washing (3 × 10 min, TBS‐T), membrane was dried and signals were quantified using a digital Fujifilm LAS3000 imager and LAS3000 software. In competition experiments, increasing concentrations of unlabeled peptides were co‐incubated with peptide–HRP conjugates.
(§6) Each peptide was separately coupled to HRP.

[4] = target: T2, AIP (Homo sapiens, UniProt O00170); experiment: Dot-blot competition assay: HRP-conjugated peptide vs unlabeled peptide on nitrocellulose-immobilized AIP
T2 sequence (O00170 1-330): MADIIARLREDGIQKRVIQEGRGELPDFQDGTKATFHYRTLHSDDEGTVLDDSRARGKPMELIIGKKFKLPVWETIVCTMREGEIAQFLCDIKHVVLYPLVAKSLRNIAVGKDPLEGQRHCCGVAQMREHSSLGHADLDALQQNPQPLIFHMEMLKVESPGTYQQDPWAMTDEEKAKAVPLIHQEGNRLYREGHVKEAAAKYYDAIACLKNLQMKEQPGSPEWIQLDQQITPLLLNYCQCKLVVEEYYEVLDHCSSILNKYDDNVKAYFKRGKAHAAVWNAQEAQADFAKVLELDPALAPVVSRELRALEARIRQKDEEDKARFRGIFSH
Description: as §4, §5, §6

[5] = system: HEK293 cells; settings: N-terminally fluorescein-labeled peptides, 20 μM, fluorescence imaging
Excerpt: (§2) P < 0.05 was considered to be statistically significant. Data are presented as mean ± SEM.

[6] = system: Tom20–Tom70 interaction; experiment: Proximity ligation assay (PLA) of Tom20–Tom70 interaction in HEK293 cells; assay type: cell-based, human; settings: non-fluorescent peptide, n = 3
Excerpt: as §2, §1

[7] = system: Hsp90–Tom70 interaction; experiment: Proximity ligation assay (PLA) of Hsp90–Tom70 interaction in HEK293 cells; assay type: cell-based, human; settings: non-fluorescent peptide, n = 3
Excerpt: as §2, §1

[8] = system: Tom20–Tom70 interaction; experiment: Mammalian two-hybrid assay (luciferase) of Tom20–Tom70 interaction in HEK293 cells; assay type: cell-based, human; settings: peptide 20 μM added 4 h after transfection, 48 h, n = 3
Excerpt: (§3) Tom70 sequence was PCR amplified and subcloned into pACT vector of CheckMate™ mammalian two‐hybrid system (Promega, Madison, WI, USA) using SalI/NotI restriction sites, and Hsp90 and Tom20 DNA sequences were PCR amplified and subcloned into pBIND vector using SalI/NotI restriction sites. Tom70‐pACT/Hsp90‐pBIND and Tom70‐pACT/Tom20‐pBIND were co‐transfected with pLuc plasmid in a 1 : 1 : 1 molar ratio into HEK293 cells using Lipofectamine 3000 transfection reagent (Invitrogen, Carlsbad, CA, USA) according to the manufacturer's protocol. Triplicate samples in 96‐well cell culture plates Corning (Tewskbury, MA, USA) were used in each experiment. Hsp90, R9–Hsp90, Tom20 and R9–Tom20 peptides at concentration 20 μM were added 4 h after transfection. HEK293 cells were cultivated for 48 h, washed twice with PBS and lysed with PBS containing 1% Triton X‐100. Luciferase expression was detected using a luciferase assay kit from BioThema (Huddinge, Sweden) on a 96‐well plate reader from Perkin Elmer (Upplands Väsby, Stockholm, Sweden).
as §1

[9] = system: Hsp90–Tom70 interaction; experiment: Mammalian two-hybrid assay (luciferase) of Hsp90–Tom70 interaction in HEK293 cells; assay type: cell-based, human; settings: peptide 20 μM added 4 h after transfection, 48 h, n = 3
Excerpt: as §3, §1

competition with HRP-conjugated Hsp90 peptide for Tom70 binding [1] | competition with HRP-conjugated Tom20 peptide for Tom70 binding [1] | IC50 [3] [µM] | IC50 [4] [µM] | Molecule | affinity for Tom70 relative to 10-mer Tom20 peptide [2] | fluorescein staining of HEK293 cells (peptide translocation into the cells) [5] | decrease of Tom20–Tom70 interaction signal (PLA) [6] | decrease of Hsp90–Tom70 interaction signal (PLA) [7] | inhibition of Tom20–Tom70 interaction (mammalian two-hybrid, luciferase) [8] | inhibition of Hsp90–Tom70 interaction (mammalian two-hybrid, luciferase) [9]
effectively competes | effectively competes | 18.9 ± 3 | 17.8 ± 1.35 | CSCC[C@H](NC(=O)[C@H](CCCNC(=N)N)NC(=O)[C@H](CO)NC(=O)[C@H](C)NC(=O)[C@H](CC(=O)O)NC(=O)[C@@H](N)CCC(=O)O)C(=O)N[C@@H](CCC(=O)O)C(=O)N[C@@H](CCC(=O)O)C(=O)N[C@H](C(=O)N[C@@H](CC(=O)O)C(=O)O)C(C)C [Hsp90β] | more than 10 fold | – | – | – | – | –
– | – | – | – | H-RRRRRRRRREDASRMEEVD-OH [R9–Hsp90, cell‐permeant analog of the Hsp90 peptide containing a nine‐arginine N‐terminal tag] | – | resulted in HEK293 cells staining | approximately 50% | approximately 50% | sensitive | inhibited
